Consider 21 compounds from patent US4273782A, “Inhibition of thromboxane synthetase by 3-(1-Imidazolylalkyl) indoles” (Pfizer Inc., priority 1979, dated 1981).

Assay [1] concerns the target T1, prostacyclin synthetase (Sus scrofa, UniProt A0A5G2QT35).
T1 construct: Pig aorta microsomes; from tissue; host or cells: pig aorta (microsomes)
T1 sequence (A0A5G2QT35 1-497): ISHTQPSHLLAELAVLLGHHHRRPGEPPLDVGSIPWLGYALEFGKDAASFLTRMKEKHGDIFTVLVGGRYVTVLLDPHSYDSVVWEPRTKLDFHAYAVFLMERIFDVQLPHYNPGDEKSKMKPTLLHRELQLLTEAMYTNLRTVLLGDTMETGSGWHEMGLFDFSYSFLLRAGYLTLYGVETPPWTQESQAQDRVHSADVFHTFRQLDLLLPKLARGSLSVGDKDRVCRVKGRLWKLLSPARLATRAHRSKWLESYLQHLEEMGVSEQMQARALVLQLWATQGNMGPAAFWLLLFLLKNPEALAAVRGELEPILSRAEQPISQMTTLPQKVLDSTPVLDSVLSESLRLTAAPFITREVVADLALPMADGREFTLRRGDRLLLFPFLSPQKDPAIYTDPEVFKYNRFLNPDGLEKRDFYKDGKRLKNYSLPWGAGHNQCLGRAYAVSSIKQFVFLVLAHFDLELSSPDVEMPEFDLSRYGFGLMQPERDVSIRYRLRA
Conditions: pre-incubation of the enzyme; cited from earlier work.

A further assay addresses T2, thromboxane synthetase (Homo sapiens, UniProt P24557).
T2 construct: human platelet microsomes; from tissue; host or cells: human blood platelets (microsomes, indomethacin pre-treated)
T2 sequence (P24557 1-533): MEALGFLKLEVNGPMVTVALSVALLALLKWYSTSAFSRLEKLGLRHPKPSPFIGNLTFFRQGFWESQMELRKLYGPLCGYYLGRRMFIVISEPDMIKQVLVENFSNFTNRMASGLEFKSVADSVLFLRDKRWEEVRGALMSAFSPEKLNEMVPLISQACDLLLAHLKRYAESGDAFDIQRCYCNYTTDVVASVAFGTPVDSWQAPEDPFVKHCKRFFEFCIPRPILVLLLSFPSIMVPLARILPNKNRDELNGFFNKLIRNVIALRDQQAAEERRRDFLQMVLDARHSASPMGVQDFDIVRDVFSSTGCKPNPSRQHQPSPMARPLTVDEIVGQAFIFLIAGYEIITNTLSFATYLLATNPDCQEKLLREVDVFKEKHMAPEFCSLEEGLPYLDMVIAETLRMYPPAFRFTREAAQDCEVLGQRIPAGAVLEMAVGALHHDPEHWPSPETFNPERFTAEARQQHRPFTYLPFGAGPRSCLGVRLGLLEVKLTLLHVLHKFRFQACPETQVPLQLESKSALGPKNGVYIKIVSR
The assay can be described thus: Thromboxane A2 (TxA2) synthetase inhibition, human platelet microsomes, rabbit aorta bioassay. Type of assay: biochemical. The note with it: test compound pre-incubated with enzyme for 5 minutes, read-out: Molar concentration causing 50% inhibition of thromboxane synthetase. The method, then:
3. Thromboxane A2 (TxA2) Synthetase
Indomethacin pre-treated human platelet microsomes (Science, 1976, 193, 163) are incubated (2 min.: 0° C.) with PGH2 (produced as in 1) and aliquots of the reaction mixture superfused over two rabbit aorta spirals which are separated by a delay coil (2 min.). The latter is required to allow the selective decay of the more unstable thromboxane A2 (Proc. Nat. Acad. Sci., 1975, 72, 2994) thereby enabling the separate measurement of increased isometric tension due to the TxA2 formed and the PGH2 remaining. The test compound is pre-incubated with enzyme for 5 minutes, and its ability to inhibit the thromboxane synthetase enzyme is measured as its reduction of the TxA2 component of the isometric tension.

Assay [2] concerns the target T1, prostacyclin synthetase. The assay can be described thus: Prostacyclin (PGI2) synthetase inhibition, pig aorta microsomes, rabbit aorta bioassay. Type of assay: biochemical. Conditions: test compound pre-incubated with enzyme for 5 minutes, read-out: Molar concentration causing 50% inhibition of prostacyclin synthetase. How it is done: The effect of the compounds of the formula (I) on the thromboxane synthetase enzyme, and the prostacyclin synthetase and cyclooxygenase enzymes has been measured by the following in vitro enzyme assays:
2. Prostacyclin (PGI2) Synthetase
Pig aorta microsomes (Nature, 1976, 263, 663) are incubated (30 sec.: 22° C.) with PGH2 produced as in 1) and aliquots bio-assayed as in 1. […] The test compound is then pre-incubated with the enzyme for 5 minutes, and its ability to prevent the decrease in tension is measured.
The results of these tests are shown in the following Table, which gives the molar concentration of each compound which caused a 50% change in the effect of the relevant enzyme on isometric tension, i.e. caused a 50% inhibition of the action of that enzyme.

The test system of a further assay is cyclo-oxygenase enzyme. Conditions: cited from earlier work.
Assay [3] deals with human blood platelet aggregation. Conditions: human blood platelets; cited from earlier work.
For assay [4] the following is noted: rabbit; intravenous arachidonic acid; cited from earlier work.
The test system of a further assay is aggregation of platelets. Conditions: rat, abdominal aorta; cited from earlier work.

Structures can show the parent of a compound that is named as a salt.

On to 15-hydroxy-arachidonic acid, for which, on prostacyclin synthetase [1], the “prevention of the decrease in PGH2-induced tension (selective PGI2 synthetase inhibitor)” value is given as “prevented completely”. Take `N#CCCn1cc(Cn2ccnc2)c2ccccc21` [Example 1, 1-(2-Cyanoethyl)-3-(1-imidazolylmethyl)indole fumarate]: the IC50 on thromboxane synthetase amounted to 18 nM; at prostacyclin synthetase [2] it was 24000 nM. Taken in the same sequence, the figures for `N#Cc1ccc(Cn2cc(Cn3ccnc3)c3ccccc32)cc1` [Example 4, 1-(4-Cyanobenzyl)-3-(1-imidazolylmethyl)indole] were 4.8 nM and 2200 nM. Regarding `CCOC(=O)c1ccc(Cn2cc(Cn3ccnc3)c3ccccc32)cc1` [Example 7, 1-(4-Ethoxycarbonylbenzyl)-3-(1-imidazolylmethyl)indole hemi-fumarate], the IC50 at thromboxane synthetase is 0.16 nM; on prostacyclin synthetase [2], more than 100000 nM. Taken in the same sequence, the figures for `CCOC(=O)Cn1cc(Cn2ccnc2)c2ccccc21` [Example 10, 1-Ethoxycarbonylmethyl-3-(1-imidazolylmethyl)indole] were 12 nM and more than 100000 nM.

On to `O=C(O)CCn1cc(Cn2ccnc2)c2ccccc21` [Example 11, 1-(2-Carboxyethyl)-3-(1-imidazolylmethyl)indole fumarate monohydrate], for which the IC50 on thromboxane synthetase was 0.04 nM; on prostacyclin synthetase [2], more than 100000 nM.

For the compound `CC(C)c1c(Cn2ccnc2)c2ccccc2n1CCC(=O)O` [Example 13], the IC50 on thromboxane synthetase came to 2 nM; on prostacyclin synthetase [2], 100000 nM. Turning to `O=C(O)CCn1c(C2CC2)c(Cn2ccnc2)c2ccccc21` [Example 14, 1-carboxyethyl-2-cyclopropyl-3-(1-imidazolylmethyl)indole], the IC50 on thromboxane synthetase amounted to 0.037 nM; at prostacyclin synthetase [2], 40000 nM.

In the case of `O=C(O)CCn1cc(Cn2ccnc2)c2cc(Br)ccc21` [Example 20, 5-bromo-1-(2-carboxyethyl)-3-(1-imidazolylmethyl)indole], the IC50 on prostacyclin synthetase [2] is more than 100000 nM.

Take `O=C(O)Cn1cc(Cn2ccnc2)c2ccccc21` [Example 23, 1-Carboxymethyl-3-(1-imidazolylmethyl)indole]: the IC50 is 0.8 nM at thromboxane synthetase and more than 100000 nM at prostacyclin synthetase [2]. The matching figures for `O=C(O)c1ccc(Cn2cc(Cn3ccnc3)c3ccccc32)cc1` [Example 24, 1-(4-Carboxybenzyl)-3-(1-imidazolylmethyl)indole]: 0.16 nM and more than 100000 nM. Taken in the same sequence, the figures for `O=C(O)c1cccc(Cn2cc(Cn3ccnc3)c3ccccc32)c1` [Example 25, 1-(3-Carboxybenzyl)-3-(1-imidazolylmethyl)indole] were 2.4 nM and more than 100000 nM.

With `NC(=O)Cn1cc(Cn2ccnc2)c2ccccc21` [Example 27, 1-Carbamoylmethyl-3-(1-imidazolylmethyl)indole], the IC50 on thromboxane synthetase stood at 140 nM; on prostacyclin synthetase [2], 100000 nM. The matching figures for `CC(C)c1c(Cn2ccnc2)c2ccccc2n1CCC(N)=O` [Example 28, 1-(2-Carbamoylethyl)-2-isopropyl-3-(1-imidazolylmethyl)indole]: 6 nM and 70000 nM. For the compound `NC(=O)c1ccc(Cn2cc(Cn3ccnc3)c3ccccc32)cc1` [Example 38, 1-(4-Carbamoylbenzyl)-3-(1-imidazolylmethyl)indole], at thromboxane synthetase, the IC50 stood at 130 nM. With `c1ccc2c(c1)c(Cn1ccnc1)cn2CCc1nnn[nH]1` [Example 42, 1-[2-(5-Tetrazolyl)ethyl]-3-(1-imidazolylmethyl)indole], the IC50 on thromboxane synthetase is 0.034 nM; on prostacyclin synthetase [2], 45000 nM. Regarding `CNC(=O)NCCCn1cc(Cn2ccnc2)c2ccccc21` [Example 46, N-Methyl-N'-[3-[3-(imidazol-1-ylmethyl)indol-1-yl]propyl]urea], the IC50 at thromboxane synthetase amounted to 2.1 nM. For the compound `O=C(NCCCn1cc(Cn2ccnc2)c2ccccc21)Nc1ccccc1` [Example 47, N-Phenyl-N'-[3-[3-(imidazol-1-ylmethyl)indol-1-yl]propyl]urea], the IC50 worked out at 5.5 nM on thromboxane synthetase and 40000 nM on prostacyclin synthetase [2]. Taken in the same sequence, the figures for `O=S(=O)(NCCCn1cc(Cn2ccnc2)c2ccccc21)c1ccccc1` [Example 48, 1-(3-Benzenesulphonylaminopropyl)-3-(1-imidazolylmethyl)indole] were 1 nM and 100000 nM. Regarding `CC(=O)Oc1ccccc1C(=O)O` [aspirin], in the assay on cyclo-oxygenase enzyme, the “effect on prostacyclin and thromboxane A2 levels” value was “reduce both the prostacyclin and thromboxane A2 levels”; the “inhibition of the cyclo-oxygenase enzyme” value is “inhibit the cyclo-oxygenase enzyme”. The “inhibitory activity in vitro against a variety of aggregating agents” value in assay [3] is on record as “show inhibitory activity in vitro”. For the same compound, the “protection from the lethal effect of arachidonic acid injection” value in assay [4] was “protect the rabbit from the lethal effect of the injection”.

Take `O=C1C(CC[S+]([O-])c2ccccc2)C(=O)N(c2ccccc2)N1c1ccccc1` (centres unmarked) [sulphinpyrazone]: the “inhibitory activity in vitro against a variety of aggregating agents” value in assay [3] was “show inhibitory activity in vitro”. The “protection from the lethal effect of arachidonic acid injection” value in assay [4] is given as “protect the rabbit from the lethal effect of the injection”. Besides, in the assay on aggregation of platelets, the “prevention of aggregation of platelets in an extra corporeal loop” value is “prevent the aggregation of platelets”.
